Results taken from BindingDB's records for doi:10.1002/1439-7633(20010504)2 (University of NeuchÂTel, 2001).
pKi: −log10 of the molar value.

Biological target: T1, Delta-aminolevulinic acid dehydratase (Escherichia coli (strain K12), UniProt P0ACB2)
T1 sequence (P0ACB2 whole entry): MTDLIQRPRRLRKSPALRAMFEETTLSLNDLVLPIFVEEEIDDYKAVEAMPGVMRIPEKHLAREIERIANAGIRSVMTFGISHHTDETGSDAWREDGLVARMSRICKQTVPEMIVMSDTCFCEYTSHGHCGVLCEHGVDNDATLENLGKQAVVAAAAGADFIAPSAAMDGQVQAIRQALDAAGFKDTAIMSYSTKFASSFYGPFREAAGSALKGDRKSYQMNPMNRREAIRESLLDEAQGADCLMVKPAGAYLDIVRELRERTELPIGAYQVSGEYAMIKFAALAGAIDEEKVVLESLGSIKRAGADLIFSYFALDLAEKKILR
Test: PBGS Assay
Conditions: pH 8.1; 37 °C
From the text: The PBGS assay is a colorimetric assay based on the reaction between PBG and 4-dimethylaminobenzaldehyde (Ehrlich's reagent).

| Structure (SMILES) | pKi |
| --- | --- |
| O=C(O)CCCCNC(=O)CC[N+](=O)[O-] [Substrate analogue, 33] | 1.74 |
| NCC(=O)OCC(=O)O [Substrate analogue, 14] | 1.74 |
| O=C(O)CCC(=O)O [Succinic acid, 6] | 1.90 |
| CNC(=O)CCC(=O)O [Substrate analogue, 12] | 1.44 |
| O=C(O)CCCCNC(=O)CCC(=O)O [Substrate analogue, 32] | 1.64 |
| COC(=O)CCC(=O)NCC(=O)CC[N+](=O)[O-] [Substrate analogue, 28] | 4.70 |
| COC(=O)CC[N+](=O)[O-] [Substrate analogue, 19] | 2.73 |
| O=C(O)CC[N+](=O)[O-] [Substrate analogue, 20] | 1.35 |
| CC(=O)OCC(=O)O [Substrate analogue, 13] | 1.61 |
| CC(=O)CCC(=O)O [Substrate analogue, 8] | 2.66 |
| O=C(O)CCC(=O)CF [Substrate analogue, 9] | 4.07 |
| COC(=O)CCC(=O)O [Substrate analogue, 10] | 1.42 |
| CC(=O)CC[N+](=O)[O-] [Substrate analogue, 17] | 4.55 |
| O=C(O)CCC(=O)CCCCC[N+](=O)[O-] [Substrate analogue, 31] | 2.31 |
| O=C(CF)CC[N+](=O)[O-] [Substrate analogue, 18] | 4.68 |
| CC(=O)NCC(=O)O [Substrate analogue, 15] | 1.73 |
| COC(=O)CCC(=O)NCC(=O)CCC(=O)O [Substrate analogue, 24] | 3.61 |
